# Patent EP0085283A1, “Pyroglutamyl-tryptophan derivatives, process for their preparation and their therapeutic applications” (Società Italo-Britannica L. Manetti - H. Roberts & C., priority 1981, dated 1983)
# Experiments:
# Type in all cases: in vivo
# [1] = tested on: male rats of Wistar strain; assay: Acquisition of shuttle-box active avoidance behavior (single session test); details: 1 h prior to testing
# Procedure: (§1) Behavioral effects of DL-pyroglutamyl-tryptophan (pGlu-Trp) have been studied in male rats of Wistar strain (purchased from Morini, Italy), weighing 130+10 g at the onset of experiments. Animals were kept under light- dark cycle (lights on between 8.00 and 20.00) with standard food and water available ad lib. Animals were injected intraperitoneally (ip) with 10 or 100 mg/kg of pGlu-Trp dissolved in a solution of NaHCO3 1 N and adjusted at pH 7.4 with HC1 0.1 N. Control animals received injection of the vehicle alone. Injections were performed 1 h prior to the behavioral testing. The animals were used only once for the behavioral experiments.
# Acquisition of active avoidance behavior was studied in a single session test. The rats were trained to avoid the unconditioned stimulus (US) of a scrambled electrical footshock (0.20 mA) delivered through the grid floor. The conditioned stimulus (CS) was a buzzer presented for 5 sec prior to the US. If no escape occurred within 20 sec of CS/US presentation, the shock was terminated. A maximum of 30 conditioning trials were given with a variable intertrial interval averaging 60 sec. The learning criterion was 5 consecutive conditioned avoidance responses (CARs). For those animals that reached this criterion in less than 30 trials, the remaining trials up to a total of 30 were considered as lARs. Indexes of avoidance behavior were the total number of CARs and the number of learners.
# [2] = tested on: male rats of Wistar strain; assay: Hot plate test for analgesia; details: 10 mg/kg ip
# Procedure: as §1
# Hot plate test for analgesia was studied with a circular hot plate ([…]) where the animals were placed singularly.
# The latency in sec to the first behavioral reaction to hot pain (licking of paw) was recorded.
# [3] = tested on: male rats of Wistar strain; assay: Open field behavior in a circular open field arena; details: 10 mg/kg ip
# Procedure: as §1
# Open field behavior was studied in a circular open field arena. Ambulation (number of floor units entered), rearing, grooming and defecation scores were recorded during a 5-min observation session.
compound,measurement,setting,value
"O=C1CC[C@@H](C(=O)N[C@@H](Cc2c[nH]c3ccccc23)C(=O)O)N1 (racemic) [pGlu-Trp, pyroglutamyltryptophan]",total number of CARs,"[1]; 10 mg/kg ip, controls 14.8+1.50, difference not significant",12.7+1.99
same,number of CARs,"[1]; 100 mg/kg ip, controls 14.2+1.47, p<0.02",19.0+1.21
same,percentage of learners,"[1]; 100 mg/kg ip, controls 66.6%",90.9%
same,analgesic effect (latency to licking of paw),[2],No analgesic effect
same,defecation boli,[3],decreased
same,Ambulation (number of floor units entered),"[3]; 5-min observation session, controls 94.5+4.7",78.5+4.4
same,grooming,[3]; treated versus control rats,No difference
same,rearing,[3]; treated versus control rats,No difference
